In US20200085839A1, “COMBINATION OF IMMUNOTHERAPEUTICS AND BISFLUOROALKYL-1,4-BENZODIAZEPINONE COMPOUNDS FOR TREATING LYMPHOMAS” (Ayala Pharmaceuticals Inc., priority 2018, published 2020):

System: U266 cells (MM cell line)
Test: Cell-bound BCMA by flow cytometry
Assay type: cell-based, human
Details: 24 h, FIG. 1
Method: FIG. 1. Levels of cell-bound BCMA en multiple myelma (MM) cells Incubated with γ-secretase inhibitors (GSIs). U266 cells (MM cell line) were incubated with 0.3 nM, 0.5 nM, 1 nM or 3 nM of GSI (Compound 1, Compound 22, LY3039478 or PF3084014) for 24 hours, and BCMA levels were measured by flow cytometry.
For detecting levels of soluble and cell-bound BCMA, U266 cells (MM cell line) were seeded at 1×10^5 cells/well in a total volume of 250 μl into a 96-well plate. The cells were cultured in RPMI medium supplemented with 10% FCS. GSIs (Compound 1, Compound 22, LY3039478 (Lilly), and PF3084014 (Pfizer)) were added to U266 cell cultures at a concentration of 0.3 nM, 0.5 nM, 1 nM and 3 nM for soluble BCMA and at a concentration of […]. Following 24 hours of incubation at 37° C., the cells were collected, and BCMA levels were evaluated in both the cells (cell-bound BCMA) and the cell media (soluble BCMA). Cells were stained with an anti-BCMA antibody (PE anti-human CD269 BCMA, Biolegend). Soluble BCMA levels were analyzed by ELISA (Human BCMA/TNFRSF17 DuoSet kit: R&D Systems).

Row | Structure (SMILES) | cell-bound BCMA levels
1 | CCC[C@H](N[C@H]1CCc2cc(F)cc(F)c2C1)C(=O)Nc1cn(C(C)(C)CNCC(C)(C)C)cn1 [PF3084014, reference compound] | increased cell-bound BCMA levels
2 | C[C@H](NC(=O)CCC(F)(F)F)C(=O)N[C@@H]1C(=O)N(CCO)c2ncccc2-c2ccccc21 [LY3039478, reference compound] | increased cell-bound BCMA levels
